In patent US5395932A, “2,3-,4-,5-,6-,7-,8-,9- and/or 10-substituted dibenzoxazepine compounds, pharmaceutical compositions and methods of use” (G. D. Searle & Co., priority 1993, dated 1995):
Where a name gives a salt, the structure may show the parent alone.

Columns and labels:
[1] = Writhing Assay (PBQ-induced writhing, analgesia); assay type: in vivo, Charles River male albino mice; settings: Mus musculus, po, intragastric; for responders at 30 mg/kg: 30 mg per kilogram, 25 minutes before PBQ i.p., writhes ≤ one-half median of saline control, read-out: WRITHING ASSAY, number of mice out of 9 or 10 in which test compound produced analgesia (converted); for ED50: mice, PBQ
Description: The phrase "ED50 dose" as used herein means that dose of a compound or drug which produced a biological effect, such as producing analgesia, in 50% of the animals to which the compound or drug was administered. The Writhing Assay is one of the most widely-used experimental procedures for measuring the analgesic activity of different narcotic and nonnarcotic analgesic agents, and involves the continuous, chemically-induced pain of visceral origin to an animal, such as a mouse or rat. [Gyires et al., Arch. int. Pharmacodyn, 267, 131-140 (1984); […] al., Fed. Proc., 15, 494 (1956); Koster et al., Fed. Proc., 18, 412 (1959); and Witken et al., J. Pharmacol. exp. Ther., 133, 400-408 (1961).] Chemicals which may be used to induce this pain include phenylbenzoquinone (PBQ) and acetic acid. As a result of the chemical irritation to the animal, a characteristic stretching and writhing of the animal (dorsiflexion of the animal's back, extension of its hindlimbs and the strong contraction of its abdominal musculature) will generally occur. […] Drugs which reduce the number of writhes of the animal appear to restore the normal nociceptive threshold of the animal. […] Charles River male albino mice, weighing 20 to 30 grams were used in this assay. Twenty-five minutes after intragastric administration to nine or ten mice of 30 mg per kilogram of body weight of a compound of the present invention ("test compound"), […] per 10 g of body weight of a 0.025% w/v solution of PBQ was injected intraperitoneally into each mouse. Ten mice which were given saline in place of a test compound of the invention were used as a control group. Five minutes later, each mouse was individually placed into a glass beaker for observation, and the number of writhes occurring during the following ten-minute period was counted. A test compound was considered to have produced analgesia in a mouse if, in accordance with the conditions set forth above, and under the test criteria employed for this assay, after the administration of 30 mg per kilogram of body weight of a compound of the present invention to the mouse, the number of writhes elicited by a mouse injected with PBQ was equal to, or less than, one-half the median number of writhes recorded for the saline-treated control group of mice that day, as described by Taber in "Predictive Value of Analgesic Assays in Mice and Rats," Advances in Biochemical Psychopharmacology, 8, 191 (1974). The results for the particular compounds of the present invention analyzed in this assay, and discussed in the examples identified below which correspond thereto, are presented in Table 1 hereinbelow as fractions under the heading "WRITHING ASSAY." The fractions indicate the number of mice out of nine or ten in which a test compound produced analgesia. The standard initial screening dose of a test compound employed in this assay was 30 milligrams per […] of body weight. If this initial screening dose of the test compound produced analgesia in seven of nine or ten mice, then the effect of additional doses of the test compound on the writhing response was evaluated, and then the ED50 dose was generally calculated. (The slopes of the dose-response curves for all test compounds analyzed were compared as described by Tallarida and Murray, Manual of Pharmacologic Calculations, Page 11 (Springer Verlag, New York, 1981)). All ED50 doses calculated are also presented below as whole numbers in Table 1, under the heading "WRITHING ASSAY."

[2] = target: T1, prostaglandin E2-induced contractions of segments of guinea pig ileum (Cavia porcellus, UniProt A0A286XHJ6); experiment: Prostaglandin (PGE) Antagonism Assay (guinea pig ileum); assay type: cell-based, male albino guinea pigs; settings: estimated from 3 micromolar (dose ratio ≥2) or Schild plot (dose ratio ≥5); 37° C.; read-out: PGE ANTAGONISM IN GUINEA PIG ILEUM (pA2) (converted)
T1 construct: Segments of ileum about 2 cm long were then cut and mounted in a 10-mL tissue bath; from tissue; host or cells: guinea pig ileum segments
T1 sequence (A0A286XHJ6 1-405): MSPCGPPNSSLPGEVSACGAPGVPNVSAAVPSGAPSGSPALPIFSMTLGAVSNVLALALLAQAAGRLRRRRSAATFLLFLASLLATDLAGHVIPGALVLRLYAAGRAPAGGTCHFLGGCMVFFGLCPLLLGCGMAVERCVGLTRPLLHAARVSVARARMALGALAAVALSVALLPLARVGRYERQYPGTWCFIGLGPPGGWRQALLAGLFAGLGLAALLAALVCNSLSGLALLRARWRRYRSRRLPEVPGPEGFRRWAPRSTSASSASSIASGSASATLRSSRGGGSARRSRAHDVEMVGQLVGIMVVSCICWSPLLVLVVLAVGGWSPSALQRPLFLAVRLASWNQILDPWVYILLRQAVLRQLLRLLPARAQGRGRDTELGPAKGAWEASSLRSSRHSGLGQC
Text: The phrase "EC50 concentration" as used herein means that concentration of a compound or drug which is necessary to elicit a 50% maximal biological response and, thus, which is necessary to elicit a 50% reduction in the contractions of guinea pig ileum segments in a prostaglandin antagonism assay. (b) Prostaglandin (PGE) Antagonism Assay In order to determine the effectiveness of several of the compounds of the present invention ("test compounds") as prostaglandin E2 antagonists,a prostaglandin antagonism assay was conducted, as described below, to determine the ability of these compounds to inhibit prostaglandin E2 -induced contractions of segments of guinea pig ileum. […] Male albino guinea pigs weighing 200 to 500 grams were sacrificed by cervical dislocation. The ilea were then quickly removed from the guinea pigs and placed in a modified Tyrode solution, a solution which is known to those skilled in the art, containing one-half of the usual amount of magnesium ions. Segments of ileum about 2 cm long were then cut and mounted in a 10-mL tissue bath containing the modified Tyrode solution. The solution was maintained at 37° C. and aerated with a gaseous mixture of 95% oxygen and 5% carbon dioxide. Data for a control prostaglandin E2 dose response curve plotting concentration of prostaglandin E2 versus the intensity of contractions, detected isotonically, was then obtained by experimentally adjusting the dose of the prostaglandin E2 being injected into the tissue bath, in a manner known by those of skill in the art. Solutions or suspensions containing an initial concentration (3 micromolar) of a test compound in modified Tyrode solution ("test solutions/suspensions") were then separately substituted for the control bath solution. Each test solution/suspension was then kept in constant contact with the ileum tissue, except for brief periods to drain the bath in preparation for rinsing with fresh test solution/suspension. A second prostaglandin E2 dose response curve was then generated for prostaglandin E2 in the presence of a test compound. A dose ratio of EC50 doses was then calculated from the results of each test in a manner known by those of skill in the art. A test compound was determined to be "active" if the initial concentration used yielded at least a two-fold shift (dose ratio greater than or equal to 2) in the dose response curve for prostaglandin E2. […] The compounds of the present invention which were tested in this assay, and for which results are presented in Table 1, correspond to the particular examples specified in Table 1.

Row | SMILES | responders at 30 mg/kg [1] | Kb [2] | ED50 [1]
1 | O=C(O)c1coc(CN2Cc3ccccc3Oc3ccc(Cl)cc32)n1 [Example 8A, 2-[(8-chlorodibenz[b,f][1,4]oxazepin-10(11H)yl)methyl]-4-oxazole carboxylic acid, sodium salt] | 10% | 39.8 nM | –
2 | O=C(CCc1ccncc1)c1csc(N2Cc3ccccc3Oc3ccc(Cl)cc32)n1 [Example 32, 1-[2-(8-Chlorodibenz[b,f][1,4]oxazepin-10(11H)-yl)-4-thiazolyl]-3-(4-pyridinyl)-1-propanone, monohydrochloride] | 60% | 631 nM | –
3 | O=C(NCc1cccs1)c1coc(CN2Cc3ccccc3Oc3ccc(Cl)cc32)n1 [Example 15, 2-[(8-chlorodibenz[b,f][1,4]oxazepin-10(11H)yl)methyl]-N-(2-thienylmethyl)-4-oxazolecarboxamide] | 70% | 158 nM | –
4 | O=C(Nc1ccncc1)c1coc(CN2Cc3ccccc3Oc3ccc(Cl)cc32)n1 [Example 17, 2-[(8-chlorodibenz[b,f][1,4]oxazepin-10(11H)yl)methyl]-N-4-pyridinyl-4-oxazolecarboxamide, hydrochloride] | – | 398 nM | –
5 | Cl.O=C(NCc1ccncc1)c1csc(N2Cc3ccccc3Oc3ccc(Cl)cc32)n1 [Example 26, 2-(8-Chlorodibenz[b,f][1,4]oxazepin-10(11H)-yl)-N-(4-pyridinylmethyl)-4-thiazolecarboxamide, monohydrochloride] | – | 794 nM | 9.77 mg/kg
6 | OC(CCc1ccncc1)c1csc(N2Cc3ccccc3Oc3ccc(Cl)cc32)n1 (stereo not drawn) [Example 34B, α-[2-(8-Chlorodibenz[b,f][1,4]oxazepin-10(11H)-yl)-4-thiazolyl]-4-pyridinepropanol, dihydrochloride] | 50% | 1580 nM | –
7 | OC(/C=C\c1ccncc1)c1csc(N2Cc3ccccc3Oc3ccc(Cl)cc32)n1 (centres unmarked) [Example 34A, 2-(8-Chlorodibenz[b,f][1,4]oxazepin-10(11H)-yl)-a-[2Z(4-pyridinyl)ethenyl]-4-thiazolemethanol, hydrochloride] | – | 794 nM | 9.7 mg/kg
8 | O=C(NCCc1ccncc1)c1coc(CN2Cc3ccccc3Oc3ccc(Cl)cc32)n1 [Example 14, 2-[(8-chlorodibenz[b,f][1,4]oxazepin-10(11H)yl)methyl]-N-[2-(4-pyridinyl)ethyl]-4-oxazolecarboxamide, hydrochloride, acetate] | 60% | 15.8 nM | –
9 | O=C(Nc1ccncc1)c1csc(N2Cc3ccccc3Oc3ccc(Cl)cc32)n1 [Example 28, 2-(8-Chlorodibenz[b,f][1,4]oxazepin-10(11H)-yl)-N-4-pyridinyl-4-thiazolecarboxamide, hydrochloride] | 100% | 3160 nM | –
10 | O=C(O)c1csc(CN2Cc3ccccc3Oc3ccc(Cl)cc32)n1 [Example 20, 2-[(8-chlorodibenz[b,f][1,4]oxazepin-10(11H)yl)methyl]-4-thiazolecarboxylicacid, sodium salt] | 50% | 7.94 nM | –
11 | CCOC(=O)c1coc(CN2Cc3ccccc3Oc3ccc(Cl)cc32)n1 [Example 7, Ethyl 2-[(8-chlorodibenz[b,f][1,4]oxazepin-10(11H)yl)methyl]-4-oxazole carboxylate] | 90% | 794 nM | –
12 | O=C(Nc1cccnc1)c1csc(N2Cc3ccccc3Oc3ccc(Cl)cc32)n1 [Example 29, 2-(8-Chlorodibenz[b,f][1,4]oxazepin-10(11H)-yl)-N-3-pyridinyl-4-thiazolecarboxamide, hydrochloride] | 60% | 1000 nM | –
13 | O=C(NCc1cccnc1)c1csc(N2Cc3ccccc3Oc3ccc(Cl)cc32)n1 [Example 37, 2-(8-Chlorodibenz[b,f][1,4]oxazepin-10(11H)-yl)-N-(3-pyridinylmethyl)-4-thiazolecarboxamide, hydrochloride] | 10% | 1000 nM | –
14 | O=C(Nc1cncnc1)c1coc(CN2Cc3ccccc3Oc3ccc(Cl)cc32)n1 [Example 16, 2-[(8-chlorodibenz[b,f][1,4]oxazepin-10(11H)yl)methyl]-N-5-pyrimidinyl-4-oxazolecarboxamide] | – | 3160 nM | –
15 | O=C(Nc1ccccn1)c1csc(N2Cc3ccccc3Oc3ccc(Cl)cc32)n1 [Example 30, 2-(8-Chlorodibenz[b,f][1,4]oxazepin-10(11H)-yl)-N-2-pyridinyl-4-thiazolecarboxamide, hydrochloride] | 40% | – | –
16 | O=C(NCCc1ccccn1)c1coc(CN2Cc3ccccc3Oc3ccc(Cl)cc32)n1 [Example 9, 2-[(8-chlorodibenz[b,f][1,4]oxazepin-10(11H)yl)methyl]-N-[2-(2-pyridinyl)ethyl]-4-oxazolecarboxamide, hydrochloride] | 70% | 200 nM | –
17 | CN(C)CCNC(=O)c1csc(N2Cc3ccccc3Oc3ccc(Cl)cc32)n1 [Example 27, 2-(8-Chlorodibenz[b,f][1,4]Oxazepin-10(11H)-yl)-N-[2-(dimethylamino)ethyl]-4-thiazolecarboxamide, monohydrochloride] | 60% | – | –
18 | O=C(OCc1ccncc1)c1coc(CN2Cc3ccccc3Oc3ccc(Cl)cc32)n1 [Example 12, 4-pyridinylmethyl 2-[(8-chlorodibenz[b,f][1,4]oxazepin-10(11H) -yl)methyl]-4-oxazole carboxylate, hydrochloride] | 40% | – | –
19 | Cc1nc(CN2Cc3ccccc3Oc3ccc(Cl)cc32)cs1 [Example 23, 8-chloro-10,11-dihydro-10-[(2-methyl-4-thiazolyl)methyl]dibenz[b,f][1,4]oxazepine hydrochloride] | 11.1% | – | –
